Experimental data reported in ChEMBL document CHEMBL1201862, “PubChem BioAssay data set” (2004).
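All cell lines were grown in 96-well plates and treated with compound for 48 hours. Here, GI50 denotes the concentration required for 50% inhibition of growth.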 Activity calls are given as the source filed them. Cut-off read from the data, not from the text of the source: active = GI50 up to about 1.1 µM and inactive = higher.

What was measured:
Test in all cases: inhibition of tumour cell growth, NCI panel, 48 h
[1] = system: SW-620
[2] = system: MDA-MB-231
[3] = system: SNB-75
[4] = system: HL-60
[5] = system: SR
[6] = system: NCI-H23
[7] = system: COLO 205
[8] = system: 786-0
[9] = system: U-251
[10] = system: NCI/ADR-RES
[11] = system: SK-MEL-28
[12] = system: OVCAR-4
[13] = system: K562
[14] = system: UACC-62
[15] = system: HOP-62
[16] = system: SNB-19
[17] = system: TK-10
[18] = system: SF-295
[19] = system: SK-MEL-5
[20] = system: OVCAR-8
[21] = system: HCT-116
[22] = system: PC-3
[23] = system: EKVX
[24] = system: HCT-15
[25] = system: MCF7
[26] = system: SK-OV-3
[27] = system: SN12C
[28] = system: OVCAR-5
[29] = system: OVCAR-3
[30] = system: A498
[31] = system: CAKI-1
[32] = system: RPMI-8226
[33] = system: IGROV-1
[34] = system: KM12
[35] = system: BT-549
[36] = system: LOX IMVI
[37] = system: M14
[38] = system: NCI-H460
[39] = system: Hs-578T
[40] = system: A549
[41] = system: UACC-257
[42] = system: MDA-MB-435
[43] = system: ACHN
[44] = system: MOLT-4
[45] = system: SK-MEL-2
[46] = system: SF-268
[47] = system: UO-31
[48] = system: HT-29
[49] = system: NCI-H522
[50] = system: CCRF-CEM
[51] = system: HCC 2998
[52] = system: Malme-3M
[53] = system: NCI-H226
[54] = system: MDA-N
[55] = system: HOP-92
[56] = system: DU-145
[57] = system: T47D
[58] = system: SF-539

Cc1ccc(NC(=O)c2cc(S(=O)(=O)Nc3n[nH]c(=O)[nH]3)c(SSc3cc(Cl)c(C(=O)Nc4ccc(C)cc4)cc3S(=O)(=O)Nc3n[nH]c(=O)[nH]3)cc2Cl)cc1 was tested, and the GI50 [1] was > 100 µM (inactive), the GI50 [2] was > 100 µM (inactive) and the GI50 [3] was > 100 µM (inactive). For the same compound, the GI50 [4] was > 100 µM (inactive), the GI50 [5] was > 100 µM (inactive) and the GI50 [6] was > 100 µM (inactive). For the same compound, the GI50 [7] was > 100 µM (inactive), the GI50 [8] was > 100 µM (inactive) and the GI50 [9] was > 100 µM (inactive). For the same compound, the GI50 [10] was > 100 µM (inactive), the GI50 [11] was > 100 µM (inactive) and the GI50 [12] was > 100 µM (inactive). For the same compound, the GI50 [13] was > 100 µM (inactive), the GI50 [14] was 0.838 µM (active) and the GI50 [15] was > 100 µM (inactive). The GI50 [16] was > 100 µM (inactive), the GI50 [17] was > 100 µM (inactive) and the GI50 [18] was > 100 µM (inactive). For the same compound, the GI50 [19] was > 100 µM (inactive), the GI50 [20] was > 100 µM (inactive) and the GI50 [21] was > 100 µM (inactive). The GI50 [22] was > 100 µM (inactive), the GI50 [23] was > 100 µM (inactive) and the GI50 [24] was > 100 µM. The GI50 [25] was > 100 µM (inactive), the GI50 [26] was > 100 µM (inactive) and the GI50 [27] was > 100 µM (inactive). The GI50 [28] was > 100 µM (inactive), the GI50 [29] was > 100 µM (inactive) and the GI50 [30] was > 100 µM (inactive). The GI50 [31] was > 100 µM (inactive), the GI50 [32] was > 100 µM (inactive) and the GI50 [33] was > 100 µM (inactive). For the same compound, the GI50 [34] was > 100 µM (inactive), the GI50 [35] was > 100 µM (inactive) and the GI50 [36] was > 100 µM (inactive). For the same compound, the GI50 [37] was > 100 µM (inactive), the GI50 [38] was > 100 µM (inactive) and the GI50 [39] was > 100 µM (inactive). For the same compound, the GI50 [40] was > 100 µM (inactive), the GI50 [41] was > 100 µM (inactive) and the GI50 [42] was > 100 µM (inactive). For the same compound, the GI50 [43] was > 100 µM (inactive), the GI50 [44] was > 100 µM (inactive) and the GI50 [45] was > 100 µM (inactive). For the same compound, the GI50 [46] was > 100 µM (inactive), the GI50 [47] was > 100 µM (inactive) and the GI50 [48] was > 100 µM (inactive). The GI50 [49] was > 100 µM (inactive), the GI50 [50] was > 100 µM (inactive) and the GI50 [51] was > 100 µM (inactive). The GI50 [52] was > 100 µM (inactive), the GI50 [53] was > 100 µM (inactive) and the GI50 [54] was > 100 µM (inactive). The GI50 [55] was > 100 µM (inactive).

In the case of O=c1cc(-c2ccccc2)oc2cc(Oc3nnnn3-c3ccccc3)ccc12, the GI50 [1] was > 100 µM (inactive), the GI50 [2] was 42.6 µM (inactive) and the GI50 [4] was 30.5 µM (inactive). The GI50 [5] was 44.9 µM (inactive), the GI50 [6] was 51.6 µM (inactive) and the GI50 [7] was 35.1 µM (inactive). The GI50 [8] was 38.7 µM (inactive), the GI50 [9] was 19.1 µM (inactive) and the GI50 [56] was 32.5 µM (inactive). For the same compound, the GI50 [11] was 79.1 µM (inactive), the GI50 [12] was 19.9 µM (inactive) and the GI50 [13] was 32.6 µM (inactive). For the same compound, the GI50 [14] was > 100 µM (inactive), the GI50 [15] was 93.8 µM (inactive) and the GI50 [16] was 55.8 µM (inactive). The GI50 [17] was 67 µM (inactive), the GI50 [18] was 46.2 µM (inactive) and the GI50 [19] was 15.1 µM (inactive). For the same compound, the GI50 [20] was 34.8 µM (inactive), the GI50 [21] was 34.6 µM (inactive) and the GI50 [57] was 11.7 µM (inactive). The GI50 [22] was 39.4 µM (inactive), the GI50 [23] was 35.8 µM (inactive) and the GI50 [24] was 29 µM. The GI50 [25] was 16.3 µM (inactive), the GI50 [58] was 22.4 µM (inactive) and the GI50 [26] was 36 µM (inactive). The GI50 [27] was 60.8 µM (inactive), the GI50 [29] was 55.6 µM (inactive) and the GI50 [30] was 28.3 µM (inactive). For the same compound, the GI50 [31] was 6.14 µM (inactive), the GI50 [32] was 51.4 µM (inactive) and the GI50 [33] was 98.4 µM (inactive). The GI50 [34] was 40.4 µM (inactive), the GI50 [35] was 21.4 µM (inactive) and the GI50 [36] was 38.9 µM (inactive). For the same compound, the GI50 [37] was 36.5 µM (inactive), the GI50 [38] was 36.8 µM (inactive) and the GI50 [39] was 25.4 µM (inactive). For the same compound, the GI50 [40] was 31.6 µM (inactive), the GI50 [41] was 32.5 µM (inactive) and the GI50 [42] was 15.5 µM (inactive). The GI50 [43] was 4.18 µM (inactive), the GI50 [44] was 32.4 µM (inactive) and the GI50 [45] was 28.4 µM (inactive). For the same compound, the GI50 [46] was 15 µM (inactive), the GI50 [47] was 19 µM (inactive) and the GI50 [48] was 57.7 µM (inactive). The GI50 [49] was 36.1 µM (inactive), the GI50 [50] was 69.2 µM (inactive) and the GI50 [51] was > 100 µM (inactive). For the same compound, the GI50 [52] was 33.4 µM (inactive), the GI50 [53] was 9.42 µM (inactive) and the GI50 [54] was 41.5 µM (inactive). The GI50 [55] was 2.37 µM (inactive).
